Publication PMC10714400, “Antimicrobial Peptide–Peptoid Hybrids with and without Membrane Disruption” (ACS Infectious Diseases, 2023)
Converted amounts (≈) assume the structure as drawn. Where a SMILES comes first, the peptide text is derived from it. [ ]: non-standard residue; d: D form. Nleu = CC(C)CNCC(=O)O

Experiments:
[1] = Circular dichroism, α-helical content; assay type: physicochemical; conditions: 0.1 mg/mL; for CD %α with 5 mM DPC: 10 mM phosphate buffer pH 7.4, 5 mM DPC; for CD %α with 20% TFE: 10 mM phosphate buffer pH 7.4, 20% TFE
K. pneumoniae NCTC418 = system: K. pneumoniae NCTC418
Procedure: (§1) Antimicrobial activity was assayed for all the peptide–peptoids against P. aeruginosa PAO1, K. pneumoniae NCTC418, E. coli W3110, A. baumannii ATCC 19606, methicillin-resistant S. aureus COL (MRSA), and for selected peptides on P. aeruginosa PA14 and the polymyxin-B-resistant derivatives PA14 4.13, PA14 4.18, PA14 2P4, as well as the clinical isolates ZEM-1A and ZEM9A, K. pneumoniae OXA-48, S. aureus Newman, Enterobacter cloacae, Stenotrophomonas maltophilia, Burkholderia cenocepacia, and Staphylococus epidermidis. To determine the Minimal Inhibitory Concentration (MIC), the Broth Microdilution method was used.[72] A colony of bacteria was picked and grown in LB medium overnight at 37 °C.
(§2) To each well was finally added 4 μL of the diluted bacterial suspension (see above), corresponding to approximately 5 × 10^5 CFU. For each test, two columns of the plate were kept for sterility control (medium only), growth control (medium with bacterial inoculum, no compound). The positive control, Polymyxin B (starting with a concentration of 16 μg/mL) in MH medium with bacterial inocula, was introduced in the two lines of the plate. The plates were incubated at 37 °C for ca. 18 h under static conditions. Next, 15 μL of 3-(4,5-dimethylthiazol-2-yl)-2,5-diphenyltetrazolium bromide (MTT)[73] (1 mg/mL in sterilized MilliQ deionized water) were added to each well, and the plates were incubated for 20–30 min at room temperature. The minimal inhibitory concentration (MIC) was defined as the lowest concentration of the compound that inhibits the visible growth of the tested bacteria (yellow) with the unaided eye.

PA14 4.18 (pmrB) = conditions: CSV; […] MH at pH 8.5
Procedure: as §1, §2

A. baumannii ATCC19606 = system: A. baumannii ATCC19606
Procedure: as §1, §2

P. aeruginosa PAO1 = system: P. aeruginosa PAO1
Procedure: as §1, §2

E. coli W3110 = system: E. coli W3110
Procedure: as §1, §2

PA14 4.13 (phoQ) = conditions: […] MH at pH 8.5
Procedure: as §1, §2

S. aureus COL (MRSA) = system: S. aureus COL (MRSA)
Procedure: as §1, §2

PA14 2P4 (pmrB) = conditions: CSV; […] MH at pH 8.5
Procedure: as §1, §2

P. aeruginosa PA14 = conditions: Table S3; […] MH at pH 8.5, 16-20 hours at 37 °C
Procedure: as §1
as §2, with “The plates were incubated at 37 °C for ca. 18 h under static conditions.” left out

S. aureus Newman = conditions: Table S3; […] MH at pH 8.5
Procedure: as §1
as §2, with “The plates were incubated at 37 °C for ca. 18 h under static conditions.” left out

[2] = system: human red blood cells (hRBC); assay: Minimum hemolytic concentration (MHC); assay type: cell-based
Source text: We also measured minimal hemolysis concentrations (MHC) on human red blood cells by serial 2-fold dilution as an indication of toxicity against eukaryotic cells (Table 1).

## CC(C)C[C@H](NC(=O)[C@H](CC(C)C)NC(=O)[C@H](CCCCN)NC(=O)[C@@H](N)CCCCN)C(=O)N[C@@H](CCCCN)C(=O)N[C@@H](CC(C)C)C(=O)N[C@@H](CC(C)C)C(=O)N[C@@H](CCCCN)C(=O)N(CC(=O)N(CC(=O)N(CC(N)=O)CC(C)C)CC(C)C)CC(C)C [EB3] (H-KKLLKLLK[Nleu][Nleu][Nleu]-NH2)
[1]; DichroWeb, Contin-LL
  CD %α with 5 mM DPC: 13%
  CD %α with 20% TFE: 15%
[1]; Table S2
  CD %α with 5 mM DPC: 13%
  CD %α with 20% TFE: 15%
K. pneumoniae NCTC418; NCTC418, 4 h, pH 7.4
  MIC K. pneumoniae NCTC418, full MH at pH 7.4: >32 ug/mL
K. pneumoniae NCTC418; Table S2, […] MH, pH 7.4
  MIC K. pneumoniae NCTC418 […] 7.4: > 32 µg/mL
K. pneumoniae NCTC418; Table S2, […] MH, pH 8.5
  MIC K. pneumoniae NCTC418 […] 8.5: 16 µg/mL (≈ 12.1 µM)
K. pneumoniae NCTC418; Table S2, full MH, pH 7.4
  MIC K. pneumoniae NCTC418 Full MH 7.4: > 32 µg/mL
K. pneumoniae NCTC418; Table S2, full MH, pH 8.5
  MIC K. pneumoniae NCTC418 Full MH 8.5: 32 µg/mL (≈ 24.2 µM)
PA14 4.18 (pmrB)
  MIC P. aeruginosa PA14 4.18, […] MH at pH 8.5: 8 ug/mL
A. baumannii ATCC19606; ATCC19606, 4 h, pH 7.4
  MIC A. baumannii ATCC19606, full MH at pH 7.4: >32 ug/mL
A. baumannii ATCC19606; ATCC19606, 4 h, pH 8.5
  MIC A. baumannii ATCC19606, full MH at pH 8.5: >32 ug/mL
A. baumannii ATCC19606; Table S2, […] MH, pH 7.4
  MIC A. baumannii ATCC19606 […] 7.4: 32 µg/mL (≈ 24.2 µM)
A. baumannii ATCC19606; Table S2, […] MH, pH 8.5
  MIC A. baumannii ATCC19606 […] 8.5: 16 µg/mL (≈ 12.1 µM)
A. baumannii ATCC19606; Table S2, full MH, pH 7.4
  MIC A. baumannii ATCC19606 Full MH 7.4: > 32 µg/mL
A. baumannii ATCC19606; Table S2, full MH, pH 8.5
  MIC A. baumannii ATCC19606 Full MH 8.5: > 32 µg/mL
P. aeruginosa PAO1; PAO1, 4 h, pH 7.4
  MIC P. aeruginosa PAO1, full MH at pH 7.4: >32 ug/mL
P. aeruginosa PAO1; PAO1, 4 h, pH 8.5
  MIC P. aeruginosa PAO1, full MH at pH 8.5: 16 ug/mL
P. aeruginosa PAO1; Table S2, […] MH, pH 7.4
  MIC P. aeruginosa PAO1 […] 7.4: 16 µg/mL (≈ 12.1 µM)
P. aeruginosa PAO1; Table S2, […] MH, pH 8.5
  MIC P. aeruginosa PAO1 […] 8.5: 4 µg/mL (≈ 3.03 µM)
P. aeruginosa PAO1; Table S2, full MH, pH 7.4
  MIC P. aeruginosa PAO1 Full MH 7.4: > 32 µg/mL
P. aeruginosa PAO1; Table S2, full MH, pH 8.5
  MIC P. aeruginosa PAO1 Full MH 8.5: 16 µg/mL (≈ 12.1 µM)
E. coli W3110; CSV, […] MH at pH 7.4
  MIC E. coli W3110, […] MH at pH 7.4: 4 ug/mL
E. coli W3110; CSV, […] MH at pH 8.5
  MIC E. coli W3110, […] MH at pH 8.5: 3 ug/mL
E. coli W3110; CSV, full MH at pH 7.4
  MIC E. coli W3110, full MH at pH 7.4: >32 ug/mL
E. coli W3110; Table S2, […] MH, pH 7.4
  MIC E. coli W3110 […] 7.4: 4 µg/mL (≈ 3.03 µM)
E. coli W3110; Table S2, […] MH, pH 8.5
  MIC E. coli W3110 […] 8.5: 2 to 4 µg/mL
E. coli W3110; Table S2, full MH, pH 7.4
  MIC E. coli W3110 Full MH 7.4: > 32 µg/mL
E. coli W3110; Table S2, full MH, pH 8.5
  MIC E. coli W3110 Full MH 8.5: 16 µg/mL (≈ 12.1 µM)
PA14 4.13 (phoQ); CSV
  MIC P. aeruginosa PA14 4.13, […] MH at pH 8.5: 6 ug/mL
PA14 4.13 (phoQ); Table S3
  MIC P. aeruginosa PA14 4.13: 4 to 8 µg/mL
S. aureus COL (MRSA); COL, 4 h, pH 7.4
  MIC S. aureus COL (MRSA), full MH at pH 7.4: >32 ug/mL
S. aureus COL (MRSA); COL, 4 h, pH 8.5
  MIC S. aureus COL (MRSA), full MH at pH 8.5: 32 ug/mL
S. aureus COL (MRSA); Table S2, […] MH, pH 7.4
  MIC S. aureus COL (MRSA) […] 7.4: 32 µg/mL (≈ 24.2 µM)
S. aureus COL (MRSA); Table S2, […] MH, pH 8.5
  MIC S. aureus COL (MRSA) […] 8.5: 8 µg/mL (≈ 6.05 µM)
S. aureus COL (MRSA); Table S2, full MH, pH 7.4
  MIC S. aureus COL (MRSA) Full MH 7.4: > 32 µg/mL
S. aureus COL (MRSA); Table S2, full MH, pH 8.5
  MIC S. aureus COL (MRSA) Full MH 8.5: 32 µg/mL (≈ 24.2 µM)
PA14 2P4 (pmrB)
  MIC P. aeruginosa PA14 2P4, […] MH at pH 8.5: 16 ug/mL
P. aeruginosa PA14
  MIC P. aeruginosa PA14: 4 µg/mL (≈ 3.03 µM)
S. aureus Newman
  MIC S. aureus Newman: 4 µg/mL (≈ 3.03 µM)
[2]
  Hemolysis: none of them showed any measurable hemolysis
  MHC: >2000 µg/mL
